Consider 29 compounds from ChEMBL document CHEMBL1139672, “1,2,3,4-Tetrahydroisoquinolinyl sulfamic acids as phosphatase PTP1B inhibitors” (Bioorg Med Chem Lett, 2006).

Experiment [1] deals with T1, Tyrosine-protein phosphatase non-receptor type 1 (Homo sapiens, UniProt P18031).
T1 sequence (P18031 whole entry): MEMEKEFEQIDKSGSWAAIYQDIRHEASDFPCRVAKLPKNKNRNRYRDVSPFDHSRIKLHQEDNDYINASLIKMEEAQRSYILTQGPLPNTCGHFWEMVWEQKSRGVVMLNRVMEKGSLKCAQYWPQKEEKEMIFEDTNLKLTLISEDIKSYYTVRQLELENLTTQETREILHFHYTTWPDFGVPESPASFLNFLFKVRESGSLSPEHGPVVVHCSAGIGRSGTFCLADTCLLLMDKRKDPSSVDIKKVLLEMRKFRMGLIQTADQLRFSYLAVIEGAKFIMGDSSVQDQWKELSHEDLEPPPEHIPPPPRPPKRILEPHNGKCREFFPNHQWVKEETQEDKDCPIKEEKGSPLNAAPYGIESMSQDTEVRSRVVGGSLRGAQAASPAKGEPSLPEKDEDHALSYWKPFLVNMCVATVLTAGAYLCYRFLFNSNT
Kind of experiment: Inhibition of PTP1B.

Experiment [2] deals with T2, Tyrosine-protein phosphatase non-receptor type 2 (Homo sapiens, UniProt P17706).
T2 sequence (P17706 whole entry): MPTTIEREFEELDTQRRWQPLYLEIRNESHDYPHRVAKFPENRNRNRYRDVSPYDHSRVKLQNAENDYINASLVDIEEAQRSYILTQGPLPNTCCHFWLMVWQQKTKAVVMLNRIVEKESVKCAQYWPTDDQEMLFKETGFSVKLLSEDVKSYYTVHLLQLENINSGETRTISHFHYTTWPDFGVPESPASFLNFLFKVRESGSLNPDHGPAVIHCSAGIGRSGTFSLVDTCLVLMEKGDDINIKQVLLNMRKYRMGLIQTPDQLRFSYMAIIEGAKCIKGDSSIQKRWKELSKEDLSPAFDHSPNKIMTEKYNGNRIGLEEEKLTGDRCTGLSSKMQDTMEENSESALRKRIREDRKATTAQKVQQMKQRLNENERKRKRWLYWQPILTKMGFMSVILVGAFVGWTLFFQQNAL
Kind of experiment: Inhibition of TCPTP.

Structures are written as SMILES. Where only a bound is given, the exact number is not on record here.

As for `CNC(=O)[C@@H]1Cc2ccc(NS(=O)(=O)O)cc2CN1C(=O)CCC(=O)O`, in experiment [1], half-maximal inhibition (IC50) was put at 154 µM. On the same count and under the same terms, under `CC(C)(C)OC(=O)N1Cc2cc(NS(=O)(=O)O)ccc2C[C@H]1C(=O)NCCc1ccccc1` stands 51.4 µM; under `CC(C)(C)OC(=O)N1Cc2cc(NS(=O)(=O)O)ccc2C[C@H]1CO`, more than 500 µM. In the case of `CNC(=O)[C@@H]1Cc2ccc(NS(=O)(=O)O)cc2CN1C(=O)OC(C)(C)C`, the IC50 in experiment [1] was 42.5 µM; in experiment [2], 169 µM. In the case of `CNC(=O)[C@@H]1Cc2ccc(NS(=O)(=O)O)cc2CN1C(=O)CCCc1ccccc1`, the IC50 in experiment [1] is 271 µM. Same read-out and setting: the figure for `CNC(=O)[C@@H]1Cc2ccc(NS(=O)(=O)O)cc2CN1C(=O)CCc1cccc(O)c1` is 82.1 µM. For `CNC(=O)[C@H](Cc1ccc(NS(=O)(=O)O)cc1)NC(=O)OC(C)(C)C`, the IC50 amounted to 39.6 µM in experiment [1] and 80.1 µM in experiment [2]. Compound `CNC(=O)[C@@H]1Cc2ccc(NS(=O)(=O)O)cc2CN1C(=O)CCc1ccc(C)cc1` registered an IC50 in experiment [1] of 198 µM. On the same count and under the same terms, under `CNC(=O)[C@@H]1Cc2ccc(NS(=O)(=O)O)cc2CN1C(=O)NCc1ccccc1` stands 164 µM; under `CC(C)(C)OC(=O)N1Cc2cc(NS(=O)(=O)O)ccc2C[C@H]1C(=O)NCc1ccccc1`, 120 µM.

Consider `CNC(=O)[C@@H]1Cc2ccc(NS(=O)(=O)O)cc2CN1C(=O)CCc1cccc(Cl)c1`, for which the IC50 in experiment [1] was 101 µM. Same read-out and setting: the figure for `CC(C)COC(=O)[C@@H]1Cc2ccc(NS(=O)(=O)O)cc2CN1C(=O)OC(C)(C)C` is 16.7 µM; for `CNC(=O)[C@@H]1Cc2ccc(NS(=O)(=O)O)cc2CN1C(=O)CCCCc1ccccc1` it is 148 µM; for `CNC(=O)[C@@H]1Cc2ccc(NS(=O)(=O)O)cc2CN1C(=O)CCc1cccc(C(F)(F)F)c1` it is 146 µM. Regarding `Cc1noc([C@@H]2Cc3ccc(NS(=O)(=O)O)cc3CN2C(=O)OC(C)(C)C)n1`, in experiment [1], the IC50 was 8.23 µM.

Turning to `CNC(=O)[C@@H]1Cc2ccc(NS(=O)(=O)O)cc2CN1C(=O)CCc1ccc(C(F)(F)F)cc1`, the IC50 in experiment [1] was determined as 225 µM. `O=C(CCc1cccc(NS(=O)(=O)O)c1)NCc1cccc(NS(=O)(=O)O)c1`: in experiment [2], the IC50 stood at 204 µM. For the compound `O=C(CCc1cccc(NS(=O)(=O)O)c1)N1CCc2ccc(NS(=O)(=O)O)cc2C1`, the half-maximal inhibitory concentration (IC50) is 26 µM in experiment [1] and 68.6 µM in experiment [2]. As to `CNC(=O)[C@@H]1Cc2ccc(NS(=O)(=O)O)cc2CN1C(=O)[C@H](Cc1ccccc1)NC(=O)OC(C)(C)C`, the IC50 in experiment [1] was more than 500 µM. Take `CNC(=O)[C@@H]1Cc2ccc(NS(=O)(=O)O)cc2CN1C(=O)CCOc1ccccc1`: the IC50 in experiment [1] came out at 83.6 µM. The same measure, in the same setting: the figure for `CNC(=O)[C@@H]1Cc2ccc(NS(=O)(=O)O)cc2CN1C(=O)CCc1coc2ccccc12` is 36.7 µM; for `CNC(=O)[C@@H]1Cc2ccc(NS(=O)(=O)O)cc2CN1C(=O)CCc1cc(NS(C)(=O)=O)cc(C(F)(F)F)c1` it is 184 µM; for `CNC(=O)[C@@H]1Cc2ccc(NS(=O)(=O)O)cc2CN1C(=O)COc1ccccc1` it is 95.3 µM.

As to `CNC(=O)[C@@H]1Cc2ccc(NS(=O)(=O)O)cc2CN1C(=O)CCc1ccccc1`, the IC50 in experiment [1] was 64.4 µM.

In turn, `CNC(=O)[C@@H]1Cc2ccc(NS(=O)(=O)O)cc2CN1C(=O)COc1cccc(O)c1C(=O)OC` displayed an IC50 in experiment [1] of 93.4 µM. In turn, `CNC(=O)[C@@H]1Cc2ccc(NS(=O)(=O)O)cc2CN1C(=O)/C=C/c1coc2ccccc12` registered an IC50 in experiment [1] of 24.9 µM. On the same count and under the same terms, the figure for `COC(=O)[C@@H]1Cc2ccc(NS(=O)(=O)O)cc2CN1C(=O)OC(C)(C)C` is 19 µM; for `CNC(=O)[C@@H]1Cc2ccc(NS(=O)(=O)O)cc2CN1C(=O)c1ccccc1` it is 286 µM. The same measure, in the same setting: under `CNC(=O)[C@@H]1Cc2ccc(NS(=O)(=O)O)cc2CN1C(=O)CCc1ccc(OC)cc1` stands 242 µM.

The IC50 is the concentration at which inhibition is half-maximal. Higher therefore signals a need for much substance.
